Values after ≈ are worked out from the molar mass of the structure shown.
system: mouse fibroblasts (L929); assay: Activity against mouse fibroblasts (L929); format: cell-based; conditions: not given

Molecule	Activity against mouse fibroblasts (L929, IC 50/ng/ml)
C/C(=C\c1csc(CO)n1)[C@@H]1C[C@@H]2O[C@]2(C)CCC[C@H](C)[C@H](O)[C@@H](C)C(=O)C(C)(C)[C@@H](O)CC(=O)O1 [Compound 4, Epothilone F, reference compound]	(4) 1.5 ng/ml

same assay, conditions: L929 mouse fibroblasts

Molecule	Activity against mouse fibroblasts (L929, IC 50/ng/ml)
C/C(=C\c1csc(C)n1)[C@@H]1C/C=C/CCC[C@H](C)[C@H](O)[C@@H](C)C(=O)[C@@H](C)[C@@H](O)CC(=O)O1 (relative stereo) [Compound 28, trans-Epothilone C1]	(28) 400 ng/ml
C/C(=C\c1csc(C)n1)[C@@H]1C/C=C/CCC[C@H](C)[C@H](O)[C@@H](C)C(=O)[C@H](C)[C@@H](O)CC(=O)O1 (relative stereo) [Compound 29, trans-Epothilone C2]	(29) 80 ng/ml
C/C(=C\c1csc(C)n1)[C@@H]1C[C@@H]2O[C@@H]2CCC[C@H](C)[C@H](O)[C@@H](C)C(=O)C(C)(C)[C@@H](O)CC(=O)O1 [Compound 1, Epothilone A, reference compound]	(1) 4 ng/ml
C/C(=C\c1csc(C)n1)[C@@H]1C[C@@H]2O[C@]2(C)CCC[C@H](C)[C@H](O)[C@@H](C)C(=O)C(C)(C)[C@@H](O)CC(=O)O1 [Compound 2, Epothilone B, reference compound]	(2) 1-2 ng/ml
C/C(=C\c1csc(CO)n1)[C@@H]1C[C@@H]2O[C@@H]2CCC[C@H](C)[C@H](O)[C@@H](C)C(=O)C(C)(C)[C@@H](O)CC(=O)O1 [Compound 3, Epothilone E, reference compound]	(3) 10 ng/ml
C/C(=C\c1csc(C)n1)[C@@H]1C[C@@H]2O[C@@H]2CCC[C@H](C)[C@H](O)[C@@H](C)C(=O)[C@H](C)[C@@H](O)CC(=O)O1 [Compound 5, Epothilone A1]	(5) 20 ng/ml
C/C(=C\c1csc(C)n1)[C@@H]1C[C@@H]2O[C@@H]2CCC[C@H](C)[C@H](O)[C@@H](C)C(=O)[C@@H](C)[C@@H](O)CC(=O)O1 [Compound 6, Epothilone A2]	(6) 7 ng/ml
Cc1nc(/C=C/[C@@H]2C[C@@H]3O[C@@H]3CCC[C@H](C)[C@H](O)[C@@H](C)C(=O)C(C)(C)[C@@H](O)CC(=O)O2)cs1 [Compound 7, Epothilone A8]	(7) 20 ng/ml
Cc1nc(/C=C(\CO)[C@@H]2C[C@@H]3O[C@@H]3CCC[C@H](C)[C@H](O)[C@@H](C)C(=O)C(C)(C)[C@@H](O)CC(=O)O2)cs1 [Compound 8, Epothilone A9]	(8) 100 ng/ml
C/C(=C\c1coc(C)n1)[C@@H]1C[C@@H]2O[C@]2(C)CCC[C@H](C)[C@H](O)[C@@H](C)C(=O)C(C)(C)[C@@H](O)CC(=O)O1 [Compound 11, Epothilone G2]	(11) 1 ng/ml
C/C(=C\c1coc(C)n1)[C@@H]1C/C=C\CCC[C@H](C)[C@H](O)[C@@H](C)C(=O)C(C)(C)[C@@H](O)CC(=O)O1 [Compound 12, Epothilone H1]	(12) 120 ng/ml
C/C1=C/C[C@@H](/C(C)=C/c2coc(C)n2)OC(=O)C[C@H](O)C(C)(C)C(=O)[C@H](C)[C@@H](O)[C@@H](C)CCC1 [Compound 13, Epothilone H2]	(13) 11 ng/ml
C/C(=C\c1csc(C)n1)[C@@H]1C/C=C\CCC[C@H](C)[C@H](O)[C@@H](C)C(=O)C(C)(C)[C@@H](O)CC(=O)O1 [Compound 14, Epothilone C, reference compound]	(14) 50-100 ng/ml
C/C1=C/C[C@@H](/C(C)=C/c2csc(C)n2)OC(=O)C[C@H](O)C(C)(C)C(=O)[C@H](C)[C@@H](O)[C@@H](C)CCC1 [Compound 15, Epothilone D, reference compound]	(15) 20 ng/ml
C/C(=C\c1csc(C)n1)[C@@H]1C/C=C\CCC[C@H](C)[C@H](O)[C@@H](C)C(=O)[C@H](C)[C@@H](O)CC(=O)O1 [Compound 16, Epothilone C1]	(16) 200 ng/ml
C/C1=C/C[C@@H](/C(C)=C/c2csc(C)n2)OC(=O)C[C@H](O)[C@@H](C)C(=O)[C@H](C)[C@@H](O)[C@@H](C)CCC1 [Compound 17, Epothilone D1]	(17) 20 ng/ml
C/C1=C/C[C@@H](/C(C)=C/c2csc(C)n2)OC(=O)C[C@H](O)[C@H](C)C(=O)[C@H](C)[C@@H](O)[C@@H](C)CCC1 [Compound 19, Epothilone D2]	(19) 12 ng/ml
C/C(=C\c1csc(C)n1)[C@@H]1C/C=C\CCC[C@H](C)[C@H](O)CC(=O)C(C)(C)[C@@H](O)CC(=O)O1 [Compound 20, Epothilone C3]	(20) 1500 ng/ml
C/C(=C\c1csc(C)n1)[C@@H]1C/C=C\CCCC[C@H](O)[C@@H](C)C(=O)C(C)(C)[C@@H](O)CC(=O)O1 [Compound 21, Epothilone C4]	(21) 800 ng/ml
C/C(=C\c1csc(C)n1)[C@@H]1C/C=C\CC/C=C(\C)[C@H](O)[C@@H](C)C(=O)C(C)(C)[C@@H](O)CC(=O)O1 [Compound 22, Epothilone C5]	(22) 1500 ng/ml
Cc1nc(/C=C/[C@@H]2C/C=C\CCC[C@H](C)[C@H](O)[C@@H](C)C(=O)C(C)(C)[C@@H](O)CC(=O)O2)cs1 [Compound 26, Epothilone C8]	(26) 250 ng/ml
Cc1nc(/C=C(\CO)[C@@H]2C/C=C\CCC[C@H](C)[C@H](O)[C@@H](C)C(=O)C(C)(C)[C@@H](O)CC(=O)O2)cs1 [Compound 27, Epothilone C9]	(27) 200 ng/ml
Epothilone D5 [Compound 23]	(23) 200 ng/ml

same assay, conditions: L929 mouse fibroblasts; read-out: Activity against mouse fibroblasts (L929, IC 50/ng/ml)

Molecule	IC50 [ng/mL]
CCc1nc(/C=C(\C)[C@@H]2C[C@@H]3O[C@]3(C)CCC[C@H](C)[C@H](O)[C@@H](C)C(=O)C(C)(C)[C@@H](O)CC(=O)O2)cs1 [Compound 9, Epothilone B10]	1.5 (≈ 0.00288 µM)
C/C(=C\c1csc(C)n1)[C@@H]1C/C=C\C=C\C[C@H](C)[C@H](O)[C@@H](C)C(=O)C(C)(C)[C@@H](O)CC(=O)O1 [Compound 24, Epothilone C6]	120 (≈ 0.252 µM)
C/C1=C/C[C@@H](/C(C)=C/c2csc(C)n2)OC(=O)C[C@H](O)C(C)C(=O)C(C)CCC1 (stereo partly shown) [Compound 36, Epothilone K]	180 (≈ 0.429 µM)
C/C(=C\c1csc(C)n1)[C@@H](O)C/C=C\CCC[C@H](C)[C@H](O)[C@@H](C)C(=O)C(C)C [Compound 37]	50 (≈ 0.123 µM)

From patent publication US6624310B1, “Epothilone minor constituents” (Gesellschaft fuer Biotechnologische Forschung, mbH (GBF), priority 1998, dated 2003)
